Measured values reported in US11484575B2, “Compositions and methods comprising bone morphogenetic protein and NEMO binding peptide” (Cedars-Sinai Medical Center, priority 2018, dated 2022).

What was measured:
[1] = tested on: inflammatory bone destruction; conditions: cited from earlier work
[2] = tested on: rat spine fusion model; test: Manual palpation fusion, rat posterolateral spine fusion model; format: in vivo, Sprague Dawley rats; conditions: freshly harvested spine explants, 12 weeks
Description: Sixteen male adult (220 to 260 g) Sprague Dawley rats were utilized to compare BMP-2 mediated spine fusion in presence and absence of NBD. […] Therefore, this concentration of BMP-2 was employed. In detail, eight rats underwent single-level posterolateral fusion in the lumber spine using BMP-2 (total dose of 30 μg/side/rat) and NBD ([…]) loaded ACS and eight rats served as positive controls (30 μg/side/rat BMP-2-loaded ACS, no NBD). Rat spines were allowed to heal and consolidate for 12 weeks. Radiographical fusion was determined via high-resolution radiographs obtained at monthly intervals postoperatively. After 12 weeks, ex vivo micro-computed tomography was performed on explanted spines to determine the structural properties of the fusion mass. For functional assessment of spinal fusion, manual palpation was performed. Finally, histological evaluation of spine fusion was performed in terms of Masson-trichrome staining (Table 1). The posterolateral intertransverse process fusion surgical procedure is described briefly. […] The condition of the rats was monitored daily. […] Fusion was determined via manual palpation of segments by two independent observers. Any motion that was detected between the L4 and L5 segment, including the transverse process or vertebral bodies, was considered to indicate a fusion failure. […]

[3] = phase I clinical trial in dogs; cited from earlier work
[4] = tested on: carrageenan-induced edema; conditions: cited from earlier work
[5] = tested on: NFκB; conditions: without affecting the basal activity of IKK; cited from earlier work

**Q.** What does the source list for “TALDWSWLQTE (listed as Homo sapiens) [NBD]”?
**A.** inflammatory bone destruction in vivo ([1]; continuous administration): prevent; signs of toxicity ([1]; in vivo): without showing signs of toxicity; fusion by manual palpation [2]: 100%; toxicity [3]: low toxicity; paw edema in mice ([4]; 100 μg and 500 μg NBD): ameliorate; carrageenan-induced edema formation and cellular inflammation in mouse paws ([4]; mouse, in vivo): significantly inhibit; pro-inflammatory cytokine-induced NFκB activation [5]: block
